Experimental data from DBAASP.
≈ marks a conversion by molar mass, not a printed value.

Columns and labels:
Experiment in all cases: ≥ marks a high value that may be exact or a test limit, other limits are often not marked, values filed in µg/mL are converted to µM
[1] = test system: Bacillus megaterium ATCC 10778
[2] = test system: Bacillus subtilis ATCC 6633
Candida albicans MDM8 = test system: Candida albicans MDM8
[3] = test system: Candida tropicalis IOC 4560
[4] = test system: Enterobacter cloacae beta-12
Escherichia coli SBS 363 = test system: Escherichia coli SBS 363
Micrococcus luteus A270 = test system: Micrococcus luteus A270
[5] = test system: Pseudomonas aeruginosa ATCC 27853
[6] = test system: Serratia marcescens ATCC 4112
[7] = test system: Staphylococcus aureus ATCC 29213
Escherichia coli = test system: Escherichia coli
Listeria innocua = test system: Listeria innocua
[8] = test system: Salmonella enterica subsp. enterica serovar Enteritidis
[9] = test system: Staphylococcus aureus SH1000
[10] = test system: Acinetobacter baumannii ATCC 7978
[11] = test system: Klebsiella pneumoniae WGLW2
[12] = test system: Staphylococcus aureus ATCC 29231
[13] = test system: Staphylococcus aureus MW2
[14] = test system: Candida albicans ATCC 10231
[15] = test system: Klebsiella aerogenes ATCC 13048
Bacillus subtilis = test system: Bacillus subtilis
Candida albicans = test system: Candida albicans
Cryptococcus neoformans = test system: Cryptococcus neoformans
Pseudomonas putida = test system: Pseudomonas putida
Saccharomyces cerevisiae = test system: Saccharomyces cerevisiae
Salmonella typhimurium = test system: Salmonella typhimurium
Serratia marcescens = test system: Serratia marcescens
Staphylococcus aureus = test system: Staphylococcus aureus
Streptococcus mutans = test system: Streptococcus mutans
Streptococcus pneumoniae = test system: Streptococcus pneumoniae
[16] = test system: Salmonella enterica subsp. arizonae ATCC 13314
[17] = test system: Escherichia coli DH5alpha

Structure (SMILES): CC(C)C[C@H](NC(=O)[C@H](C)NC(=O)CNC(=O)[C@H](CC(C)C)NC(=O)[C@@H](N)Cc1ccccc1)C(=O)N[C@@H](Cc1c[nH]c2ccccc12)C(=O)N[C@@H](CC(N)=O)C(=O)N[C@H](C(=O)N[C@@H](C)C(=O)N[C@@H](CCCCN)C(=O)N[C@@H](CO)C(=O)N[C@@H](Cc1ccc(O)cc1)C(=O)N[C@@H](Cc1ccccc1)C(N)=O)C(C)C [FLGALWNVAKSYF]
- MIC [1]: 3.1 µM (≈ 4.7 µg/mL)
- MIC [2]: 1.6 µM (≈ 2.42 µg/mL)
- MIC (Candida albicans MDM8): ≥ 50 µM
- MIC [3]: 12.5 µM (≈ 18.9 µg/mL)
- MIC [4]: ≥ 50 µM
- MIC (Escherichia coli SBS 363): 6.3 µM (≈ 9.54 µg/mL)
- MIC (Micrococcus luteus A270): 0.8 µM (≈ 1.21 µg/mL)
- MIC [5]: > 50 µM
- MIC [6]: 0.4 µM (≈ 0.606 µg/mL)
- MIC [7]: 3.1 µM (≈ 4.7 µg/mL)

Structure (SMILES): CC(C)C[C@H](NC(=O)[C@H](C)NC(=O)[C@H](CC(N)=O)NC(=O)[C@H](C)NC(=O)[C@@H](NC(=O)CNC(=O)[C@H](C)NC(=O)[C@@H](NC(=O)[C@@H](NC(=O)[C@H](CCCCN)NC(=O)[C@H](CCC(N)=O)NC(=O)[C@H](Cc1ccccc1)NC(=O)[C@H](CC(=O)O)NC(=O)[C@H](C)NC(=O)[C@H](CCC(N)=O)NC(=O)[C@H](CC(C)C)NC(=O)[C@@H](NC(=O)[C@@H]1CCCN1C(=O)[C@@H](NC(=O)[C@@H](N)Cc1ccccc1)[C@@H](C)O)C(C)C)C(C)C)C(C)C)C(C)C)C(=O)N[C@@H](C)C(=O)N[C@@H](Cc1cnc[nH]1)C(=O)N[C@@H](CCCN=C(N)N)C(=O)N[C@@H](Cc1ccc(O)cc1)C(=O)N[C@@H](Cc1cnc[nH]1)C(=O)O [FTPVLQADFQKVVAGVANALAHRYH]
- MIC (Escherichia coli): 73 µM (≈ 201 µg/mL)
- MIC (Listeria innocua): ≥ 73 µM
- MIC (Micrococcus luteus A270): ≥ 85 µM
- MIC [8]: ≥ 73 µM

Structure (SMILES): CC(C)C[C@H](NC(=O)CN)C(=O)N[C@@H](Cc1ccccc1)C(=O)N[C@@H](CC(=O)O)C(=O)N[C@@H](CC(C)C)C(=O)N[C@@H](CC(C)C)C(=O)N[C@@H](CCCCN)C(=O)N[C@@H](CCCCN)C(=O)N[C@@H](CC(C)C)C(=O)N[C@@H](CC(C)C)C(=O)N[C@@H](CCCCN)C(=O)N[C@@H](CC(C)C)C(=O)N[C@@H](CC(C)C)C(=O)N[C@@H](CCCCN)C(N)=O [GLFDLLKKLLKLLK]
- MIC [9]: ≥ 100 µM

Structure (SMILES): CC[C@H](C)[C@H](NC(=O)[C@H](Cc1c[nH]c2ccccc12)NC(=O)[C@H](CCCCN)NC(=O)[C@@H](N)CC(C)C)C(=O)NCC(=O)N[C@@H](CCCCN)C(=O)N[C@@H](Cc1c[nH]c2ccccc12)C(=O)N[C@H](C(=O)N[C@@H](Cc1c[nH]c2ccccc12)C(=O)N[C@@H](CCCN=C(N)N)C(=O)N[C@H](C(=O)NCC(=O)O)C(C)C)[C@@H](C)CC [LKWIGKWIWRVG]
- MIC [10]: ≥ 83 µM
- MIC [11]: ≥ 83 µM
- MIC [12]: ≥ 83 µM
- MIC [13]: ≥ 41.5 µM

Structure (SMILES): CC[C@H](C)[C@H](NC(=O)[C@H](CCCCN)NC(=O)[C@H](Cc1c[nH]c2ccccc12)NC(=O)[C@@H](N)CC(C)C)C(=O)NCC(=O)N[C@@H](Cc1c[nH]c2ccccc12)C(=O)N[C@@H](CCCCN)C(=O)N[C@H](C(=O)N[C@@H](Cc1c[nH]c2ccccc12)C(=O)N[C@@H](CCCN=C(N)N)C(=O)N[C@H](C(=O)NCC(=O)N[C@@H](Cc1c[nH]c2ccccc12)C(=O)N[C@@H](CC(N)=O)C(=O)N[C@@H](Cc1c[nH]c2ccccc12)C(=O)N[C@@H](CCCN=C(N)N)C(=O)O)C(C)C)[C@@H](C)CC [LWKIGWKIWRVGWNWR]
- MIC [10]: 14.7 µM (≈ 32 µg/mL)
- MIC [14]: 29.3 µM (≈ 64 µg/mL)
- MIC [15]: ≥ 58.6 µM
- MIC [12]: 14.7 µM (≈ 32 µg/mL)
- MIC [13]: 14.7 µM (≈ 32 µg/mL)

Structure (SMILES): CC(C)C[C@H](NC(=O)[C@H](CCCN=C(N)N)NC(=O)[C@H](Cc1cnc[nH]1)NC(=O)[C@@H](NC(=O)[C@H](CCCN=C(N)N)NC(=O)CNC(=O)[C@@H](NC(=O)[C@@H]1CCCN1C(=O)[C@H](Cc1ccccc1)NC(=O)[C@H](CCC(N)=O)NC(=O)[C@H](CC(C)C)NC(=O)CNC(=O)[C@H](C)NC(=O)[C@@H](N)CCCN=C(N)N)C(C)C)C(C)C)C(=O)O [RAGLQFPVGRVHRL]
- MIC (Bacillus subtilis): ≥ 79.7 µM
- MIC (Candida albicans): > 159 µM
- MIC (Cryptococcus neoformans): ≥ 159 µM
- MIC (Escherichia coli): 159 µM (≈ 256 µg/mL)
- MIC (Pseudomonas putida): ≥ 159 µM
- MIC (Saccharomyces cerevisiae): ≥ 159 µM
- MIC (Salmonella typhimurium): ≥ 79.7 µM
- MIC (Serratia marcescens): ≥ 159 µM
- MIC (Staphylococcus aureus): 159 µM (≈ 256 µg/mL)
- MIC (Streptococcus mutans): ≥ 159 µM
- MIC (Streptococcus pneumoniae): ≥ 79.7 µM

Structure (SMILES): CC[C@H](C)[C@H](NC(=O)[C@H](CC(C)C)NC(=O)[C@H](CO)NC(=O)[C@H](CC(C)C)NC(=O)[C@H](CC(C)C)NC(=O)[C@@H](N)CO)C(=O)N[C@@H](CCCN=C(N)N)C(=O)N[C@@H](CCCCN)C(=O)N[C@@H](CC(C)C)C(=O)N[C@@H](CC(C)C)C(=O)N[C@H](C(N)=O)[C@@H](C)O [SLLSLIRKLLT]
- MIC (Candida albicans MDM8): 0.4 µM (≈ 0.502 µg/mL)
- MIC (Escherichia coli SBS 363): 1.6 µM (≈ 2.01 µg/mL)
- MIC (Micrococcus luteus A270): 0.4 µM (≈ 0.502 µg/mL)
- MIC [5]: 1.6 µM (≈ 2.01 µg/mL)
- MIC [16]: ≥ 50 µM

Structure (SMILES): CC(C)C[C@H](NC(=O)[C@@H](N)C(C)C)C(=O)N[C@@H](CO)C(=O)N[C@@H](C)C(=O)N[C@@H](C)C(=O)N[C@@H](CC(=O)O)C(=O)N[C@@H](CCCCN)C(=O)NCC(=O)N[C@@H](CC(N)=O)C(=O)N[C@H](C(=O)N[C@@H](CCCCN)C(=O)N[C@@H](C)C(=O)N[C@@H](C)C(=O)N[C@@H](Cc1c[nH]c2ccccc12)C(=O)NCC(=O)N[C@@H](CCCCN)C(=O)N[C@H](C(=O)NCC(=O)NCC(=O)N[C@@H](Cc1cnc[nH]1)C(=O)N[C@@H](C)C(=O)N[C@@H](C)C(=O)N[C@@H](CCC(=O)O)C(=O)N[C@@H](Cc1ccc(O)cc1)C(=O)NCC(=O)N[C@@H](C)C(=O)N[C@@H](CCC(=O)O)C(=O)N[C@@H](C)C(=O)O)C(C)C)C(C)C [VLSAADKGNVKAAWGKVGGHAAEYGAEA]
- MIC (Escherichia coli): 54 µM (≈ 147 µg/mL)
- MIC (Listeria innocua): 27 µM (≈ 73.7 µg/mL)
- MIC (Micrococcus luteus A270): ≥ 54 µM
- MIC [8]: 27 µM (≈ 73.7 µg/mL)

Structure (SMILES): CC[C@H](C)[C@H](NC(=O)[C@H](C)NC(=O)[C@H](CCCCN)NC(=O)[C@@H](NC(=O)[C@H](CC(C)C)NC(=O)[C@H](CCCCN)NC(=O)[C@H](CCCCN)NC(=O)[C@@H](NC(=O)CNC(=O)[C@H](C)NC(=O)[C@H](Cc1ccccc1)NC(=O)[C@H](Cc1ccccc1)NC(=O)[C@H](CCCCN)NC(=O)CNC(=O)[C@@H](N)Cc1c[nH]c2ccccc12)C(C)C)[C@@H](C)O)C(=O)N[C@@H](CC(C)C)C(=O)N[C@@H](C)C(=O)N[C@H](C(=O)N[C@@H](CCCN=C(N)N)C(=O)N[C@@H](C)C(N)=O)C(C)C [WGKFFAGVKKLTKAILAVRA]
- MIC [17]: 10 µM (≈ 22 µg/mL)
- MIC [9]: 3.16 µM (≈ 6.97 µg/mL)

Structure (SMILES): CC[C@H](C)[C@H](NC(=O)[C@H](C)NC(=O)[C@H](CCCCN)NC(=O)[C@@H](NC(=O)[C@H](CC(C)C)NC(=O)[C@H](CCCCN)NC(=O)[C@H](CCCCN)NC(=O)[C@@H](NC(=O)CNC(=O)[C@H](C)NC(=O)[C@H](Cc1ccccc1)NC(=O)[C@H](Cc1ccccc1)NC(=O)[C@H](CCCCN)NC(=O)CNC(=O)[C@@H](N)Cc1c[nH]c2ccccc12)C(C)C)[C@@H](C)O)C(=O)N[C@@H](CC(C)C)C(=O)NCC(=O)N[C@@H](CCC(=O)O)C(=O)N[C@H](C(=O)N[C@@H](C)C(N)=O)[C@@H](C)CC [WGKFFAGVKKLTKAILGEIA]
- MIC [17]: 3.16 µM (≈ 6.88 µg/mL)
- MIC [9]: 3.16 µM (≈ 6.88 µg/mL)
